Source: publication PMC4595804, “A strategy to discover decoy chemokine ligands with an anti-inflammatory activity” (Scientific Reports, 2015)

Target: T1, CCL17 (Homo sapiens, UniProt Q92583)
T1 construct: codes for the mature CCL17 or CCL22 with an N-terminal thioredoxin-hexahistidin (TRX- (His)6) tag; thioredoxin (TRX) (N, cleaved yes); (His)6 (N, cleaved yes); made in house; host or cells: E. coli BL21 (DE3)
T1 sequence (Q92583 24-94): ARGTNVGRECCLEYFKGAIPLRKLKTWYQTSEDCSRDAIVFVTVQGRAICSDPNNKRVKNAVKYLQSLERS
Experiment: Scratch wound assay, CCL17-mediated HaCat cell migration
Format: cell-based
Conditions: HaCat cells, 72 h, read-out: inhibition of CCL17-mediated wound closure
Experimental: soluble formazan dye which can be detected by absorbance at 420-480nm. HUT78 T cells (or HaCat cells) were seeded on 24-well plates (200,000 cells per well) and were incubated […]
concentration ≤1% on cells). The background control was reserved as one well containing the culture medium only. The plates were incubated for 72h at 37°C. Three days later, the medium containing the neutraligands was removed, and WST-1 reagent (1:10 final dilution) (Ozyme) was added to each well for a 2h incubation at 37°C as the manufacturer’s recommendation. The plates were shaken and absorbance was measured at 450nm (reference wavelength 690nm) against the background control, using a multiwell plate reader (EnVision, Perkin Elmer). Assays were performed as three independent replicates.
In vitro cell migration assay (scratch wound test) […]
the wound closure was determined as the difference between wound width at times 0 and 72h. […]
doses). After 24h, cytotoxicity was evaluated in the wells using the Alamar Blue method. […]
before AA treatment. The activity of COX2 was determined by measuring PGE2 (Cayman) in the supernatants by EIA. […]

CC(C)=CCn1cnc2c1c(=O)n(C)c(=O)n2C [GPN279, 1,3-dimethyl-7-(3-methylbut-2-enyl)-1H-purine-2,6(3H, 7H)-dione]
inhibition at 10 µM: 81.4%
